Laboratory results published in patent US20240415819A1, “MACROCYCLIC COMPOUNDS AS PROTEASOME SUBUNIT BETA TYPE-5 INHIBITORS” (Lead Discovery Center GmbH, priority 2021, published 2024).

Assays:
[1] = system: RPMI 8226 (B lymphocyte cell line, multiple myeloma); test: 48 hr CTG viability assay, RPMI 8226; type: cell-based; conditions: Homo sapiens, RPMI-8226; 48 hr CTG; read-out: RPMI-8226 IC50
Outline: (§1)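 Growth inhibition by compound over 48 h; IC50 (nM) derived from duplicate CellTiter-Glo luminescence readings across 0.0015–10 uM.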

[2] = molecular target: T1, β5 subunit of the human immunoproteasome (IPS) (Homo sapiens, UniProt P28062); test: β5 inhibition assay, human immunoproteasome (Suc-LLVY-AMC); type: biochemical; conditions: IC50 class, Suc-LLVY-AMC substrate
T1 construct: purchased Boston Biochem E-370
Outline: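 Human immunoproteasome (1 nM final) was preincubated 10 min at RT with compound in 100 mM HEPES pH 7.5, 50 mM NaCl, 0.02% SDS, 1 mM DTT. Suc-LLVY-AMC (22.6 μM final) was then added for 4 h at RT in the dark. After stopping with 1 μM bortezomib, AMC fluorescence was read (ex 355/em 460 nm).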

[3] = molecular target: T2, β5 subunit of the human constitutive proteasome (CPS) (Homo sapiens, UniProt P28074); test: β5 inhibition assay, human constitutive proteasome (Suc-LLVY-AMC); type: biochemical; conditions: IC50 class, Suc-LLVY-AMC substrate
T2 construct: purchased Boston Biochem E-360
Protocol: The enzymatic activity of the β5 subunit of the human constitutive proteasome (CPS) is analyzed. In another assay, which differs from the assay of the human constitutive proteasome only in using the human immunoproteasome (IPS) the enzymatic activity of the β5 subunit of the human immunoproteasome (IPS) is analyzed. […] Inhibition is indicated as IC50 [nM] (“-”=not measured).

[4] = system: Hs 746T (human gastric carcinoma cell line); test: 48 hr CTG viability assay, Hs 746T; type: cell-based; conditions: Hs746T, 48 hr CTG, read-out: Hs 746T IC50
Outline: as §1

[5] = system: MM1 S (B lymphoblast cell line); test: 48 hr CTG viability assay, MM1S; type: cell-based; conditions: Homo sapiens, 48 hr CTG, read-out: MM1S IC50
Outline: as §1

[6] = system: A549 (human lung carcinoma cell line); test: Glo assay of A549 cells (Table 3; ProteasomeGlo plating scheme); type: cell-based; conditions: Homo sapiens; A549 cells; read-out: PGLo A549
Outline: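 Compound treatment lasts 105 minutes at 37° C. under 5% CO2. Suc-LLVY-Glo substrate premixed with detection reagent (60 min at room temperature) is then added directly to the cells, and luminescence after 10-15 min in the dark gives the IC50 in nM.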

IC50 [1] [nM] | IC50 [2] [nM] | IC50 [3] [nM] | IC50 [4] [nM] | IC50 [5] [nM] | IC50 [6] [nM] | Compound
< 100 | < 100 | < 100 | < 100 | < 100 | < 100 | Cc1ccc2cc1CNC(=O)[C@H](CCc1ccccc1)NC(=O)[C@@H](NC(=O)C13CC(O)(C1)C3)CC(=O)N1CCCC(CCO2)C1 (stereo partly drawn) [Compound 655, 3-hydroxy-N-((9S,12S)-5^4-methyl-8,11,14-trioxo-9-phenethyl-4-oxa-7,10-diaza-1(3,1)-piperidina-5(1,3)-benzenacyclotetradecaphane-12-yl)bicyclo[1.1.1]pentane-1-carboxamide]
< 100 | < 100 | < 100 | < 100 | < 100 | < 100 | Cc1ccc2cc1CNC(=O)[C@H](CCc1ccccc1)NC(=O)[C@@H](NC(=O)C13CC(F)(C1)C3)CC(=O)N1CCCC(CCO2)C1 (stereo partly drawn) [Compound 633, 3-fluoro-N-((9S,12S)-5^4-methyl-8,11,14-trioxo-9-phenethyl-4-oxa-7,10-diaza-1(3,1)-piperidina-5(1,3)-benzenacyclotetradecaphane-12-yl)bicyclo[1.1.1]pentane-1-carboxamide]
< 100 | < 100 | < 100 | < 100 | < 100 | < 100 | Cc1ccc2cc1CNC(=O)[C@H](CCc1ccccc1)NC(=O)[C@@H](NC(=O)C1CC3(CCC3)C1)CC(=O)N1CCCC(CCO2)C1 (stereo partly drawn) [Compound 631, N-((9S,12S)-5^4-methyl-8,11,14-trioxo-9-phenethyl-4-oxa-7,10-diaza-1(3,1)-piperidina-5(1,3)-benzenacyclotetradecaphane-12-yl)spiro[3.3]heptane-2-carboxamide]
< 100 | < 100 | < 100 | < 100 | < 100 | < 100 | Cc1ccc2cc1CNC(=O)[C@H](CCc1ccccc1)NC(=O)[C@@H](NC(=O)CCOCC1CC1)CC(=O)N1CCCC(CCO2)C1 (stereo partly drawn) [Compound 594, 3-(cyclopropylmethoxy)-N-((9S,12S)-5^4-methyl-8,11,14-trioxo-9-phenethyl-4-oxa-7,10-diaza-1(3,1)-piperidina-5(1,3)-benzenacyclotetradecaphane-12-yl)propanamide]
< 100 | < 100 | < 100 | < 100 | < 100 | < 100 | Cc1ccc2cc1CNC(=O)[C@H](CCc1ccccc1)NC(=O)[C@@H](NC(=O)CCOC1CC3(COC3)C1)CC(=O)N1CCCC(CCO2)C1 (stereo partly drawn) [Compound 590, 3-((2-oxaspiro[3.3]heptan-6-yl)oxy)-N-((9S,12S)-5^4-methyl-8,11,14-trioxo-9-phenethyl-4-oxa-7,10-diaza-1(3,1)-piperidina-5(1,3)-benzenacyclotetradecaphane-12-yl)propanamide]

More lines, now with the values behind:

Compound | IC50 [1] [nM] | IC50 [2] [nM] | IC50 [3] [nM] | IC50 [4] [nM] | IC50 [5] [nM] | IC50 [6] [nM]
Cc1cn([C@H]2CC(=O)N3CCCC(CCOc4ccc(C)c(c4)CNC(=O)[C@H](CCc4ccccc4)NC2=O)C3)nn1 (stereo partly drawn) [Compound 740, (9S,12S)-5^4-methyl-12-(4-methyl-1H-1,2,3-triazol-1-yl)-9-phenethyl-4-oxa-7,10-diaza-1(3,1)-piperidina-5(1,3)-benzenacyclotetradecaphane-8,11,14-trione] | 100 to 500 | < 100 | < 100 | 1000 to 5000 | 100 to 500 | 100 to 500
COc1ccc(CCCOCCC(=O)N[C@H]2CC(=O)N3CCCC(CCOc4ccc(C)c(c4)CNC(=O)[C@H](CCc4ccccc4)NC2=O)C3)cc1 (stereo partly drawn) [Compound 606, 3-(3-(4-methoxyphenyl)propoxy)-N-((9S,12S)-5^4-methyl-8,11,14-trioxo-9-phenethyl-4-oxa-7,10-diaza-1(3,1)-piperidina-5(1,3)-benzenacyclotetradecaphane-12-yl)propanamide] | < 100 | < 100 | < 100 | < 100 | < 100 | < 100
Cc1ccc2cc1CNC(=O)[C@H](CCc1ccccc1)NC(=O)[C@@H](NC(=O)CCOCc1ccccc1)CC(=O)N1CCCC(CCO2)C1 (stereo partly drawn) [Compound 589, 3-(benzyloxy)-N-((9S,12S)-5^4-methyl-8,11,14-trioxo-9-phenethyl-4-oxa-7,10-diaza-1(3,1)-piperidina-5(1,3)-benzenacyclotetradecaphane-12-yl)propanamide] | < 100 | < 100 | < 100 | < 100 | < 100 | < 100
Cc1ccc2cc1CNC(=O)[C@H](CCc1ccccc1)NC(=O)[C@@H](NC(=O)Cc1ccc(N)cc1C)CCCC(=O)NCCCCO2 [Compound 718, 2-(4-amino-2-methylphenyl)-N-((12S,15S)-1^4-methyl-8,13,16-trioxo-15-phenethyl-2-oxa-7,14,17-triaza-1(1,3)-benzenacyclooctadecaphane-12-yl)acetamide] | 100 to 500 | < 100 | < 100 | 100 to 500 | < 100 | < 100
Cc1ccc2cc1CNC(=O)[C@H](CCc1ccccc1)NC(=O)[C@@H](NC(=O)CCNCc1cccc(N3CCOCC3)c1)CC(=O)N1CCCC(CCO2)C1 (stereo partly drawn) [Compound 665, N-((9S,12S)-5^4-methyl-8,11,14-trioxo-9-phenethyl-4-oxa-7,10-diaza-1(3,1)-piperidina-5(1,3)-benzenacyclotetradecaphane-12-yl)-3-((3-morpholinobenzyl)amino)propanamide] | < 100 | < 100 | < 100 | < 100 | < 100 | < 100
Cc1ccc2cc1CNC(=O)[C@H](CCc1ccccc1)NC(=O)[C@@H](NC(=O)CCO[C@H]1C[C@@H]3CC[C@H]1C3)CC(=O)N1CCCC(CCO2)C1 [Compound 642, 3-(((1S,2S,4R)-bicyclo[2.2.1]heptan-2-yl)oxy)-N-((9S,12S)-5^4-methyl-8,11,14-trioxo-9-phenethyl-4-oxa-7,10-diaza-1(3,1)-piperidina-5(1,3)-benzenacyclotetradecaphane-12-yl)propanamide] | < 100 | < 100 | < 100 | < 100 | < 100 | < 100
Cc1ccc2cc1CNC(=O)[C@H](CCc1ccccc1)NC(=O)[C@@H](NC(=O)CCN1CCC3(CCOCC3)CC1)CC(=O)N1CCCC(CCO2)C1 (stereo partly drawn) [Compound 611, N-((9S,12S)-5^4-methyl-8,11,14-trioxo-9-phenethyl-4-oxa-7,10-diaza-1(3,1)-piperidina-5(1,3)-benzenacyclotetradecaphane-12-yl)-3-(3-oxa-9-azaspiro[5.5]undecan-9-yl)propanamide] | < 100 | < 100 | < 100 | < 100 | < 100 | < 100
Cc1ccc2cc1CNC(=O)[C@H](CCc1ccccc1)NC(=O)[C@@H](NC(=O)CCOCC1CC3CCC1C3)CC(=O)N1CCCC(CCO2)C1 (stereo partly drawn) [Compound 614, 3-(bicyclo[2.2.1]heptan-2-ylmethoxy)-N-((9S,12S)-5^4-methyl-8,11,14-trioxo-9-phenethyl-4-oxa-7,10-diaza-1(3,1)-piperidina-5(1,3)-benzenacyclotetradecaphane-12-yl)propanamide] | < 100 | < 100 | < 100 | < 100 | < 100 | < 100
Cc1ccc2cc1CNC(=O)[C@H](CCc1ccccc1)NC(=O)[C@@H](NC(=O)C(C)(C)CO)CCCC(=O)NCCCCO2 [Compound 722, 3-hydroxy-2,2-dimethyl-N-((12S,15S)-1^4-methyl-8,13,16-trioxo-15-phenethyl-2-oxa-7,14,17-triaza-1(1,3)-benzenacyclooctadecaphane-12-yl)propanamide] | 100 to 500 | < 100 | < 100 | 500 to 1000 | 100 to 500 | 100 to 500
Cc1ccc2cc1CNC(=O)C(CCc1ccncc1)NC(=O)[C@@H](NC(=O)Cc1ccc(N)cc1C)CC(=O)N1CCCC(CCO2)C1 (stereo partly drawn) [Compound 678, 2-(4-amino-2-methylphenyl)-N-((12S)-5^4-methyl-8,11,14-trioxo-9-(2-(pyridin-4-yl)ethyl)-4-oxa-7,10-diaza-1(3,1)-piperidina-5(1,3)-benzenacyclotetradecaphane-12-yl)acetamide] | < 100 | < 100 | < 100 | < 100 | < 100 | < 100
